The subject of data set [1] is PC-12. As to the kind of experiment: Protection against SNP-induced cell damage in rat PC-12 cells at 10 uM pretreated with compound for 2 hrs followed by SNP addition and measured after 24 hrs by MTT assay. The format is functional, cell-based. The note with it: time 26.0 hrs.
Data set [2] addresses T1, Prostaglandin G/H synthase 1 (Ovis aries, UniProt P05979).
T1 sequence (P05979 whole entry): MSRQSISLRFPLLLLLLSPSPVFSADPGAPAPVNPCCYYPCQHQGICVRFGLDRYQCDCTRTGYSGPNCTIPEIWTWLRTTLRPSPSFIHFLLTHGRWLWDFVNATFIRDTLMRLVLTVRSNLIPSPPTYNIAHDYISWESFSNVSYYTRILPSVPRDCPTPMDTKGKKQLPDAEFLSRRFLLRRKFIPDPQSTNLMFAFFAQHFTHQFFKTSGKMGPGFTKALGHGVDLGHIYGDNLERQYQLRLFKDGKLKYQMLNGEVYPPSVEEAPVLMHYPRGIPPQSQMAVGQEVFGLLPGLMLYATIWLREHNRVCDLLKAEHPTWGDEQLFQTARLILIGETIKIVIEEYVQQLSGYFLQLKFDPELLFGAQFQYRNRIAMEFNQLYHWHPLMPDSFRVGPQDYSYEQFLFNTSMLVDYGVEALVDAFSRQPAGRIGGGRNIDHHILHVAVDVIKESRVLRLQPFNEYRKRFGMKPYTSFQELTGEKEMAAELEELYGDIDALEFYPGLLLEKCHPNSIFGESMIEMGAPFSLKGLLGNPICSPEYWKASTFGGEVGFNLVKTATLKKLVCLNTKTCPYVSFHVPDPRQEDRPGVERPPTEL
As to the kind of experiment: Inhibition of ovine COX-1 using arachidonic acid as substrate preincubated with compound for 5 mins followed by substrate addition and measured after 2 mins by enzyme immunoassay.

Data set [3] relates to RAW264.7. As to the kind of experiment: Anti-inflammatory activity in mouse RAW264.7 cells assessed as inhibition of LPS-induced NO production preincubated with compound for 1 hrs followed by LPS stimulation and measured after 24 hrs. The format is functional, cell-based. Conditions: time 25.0 hrs.
The subject of data set [4] is RAW264.7. As to the kind of experiment: Anti-inflammatory activity in LPS-induced mouse RAW264.7 cells assessed as reduction in PGE2 level preincubated with compound for 1 hrs followed by LPS stimulation and measured after 24 hrs by ELISA. The format is functional, cell-based. The note with it: time 25.0 hrs.
The subject of data set [5] is RAW264.7. As to the kind of experiment: Cytotoxicity against mouse RAW264.7 cells assessed as reduction in cell viability at 5 uM incubated for 24 hrs by MTT assay. The class given is toxicity, cell-based. Conditions: raw264.7, 24 h.
Data set [6] deals with PC-12. Description: Neuroprotective activity against SNP-induced cell damage in rat PC-12 cells pretreated with compound for 2 hrs followed by SNP addition and measured after 24 hrs by MTT assay. The format is functional, cell-based. The note with it: dose 2.5-100 µM, time 26.0 hrs.
In data set [7] the test system is PC-12. Description: Neuroprotective activity against SNP-induced cell damage in rat PC-12 cells at 2.5 to 100 uM pretreated with compound for 2 hrs followed by SNP addition and measured after 24 hrs by MTT assay. The format is functional, cell-based. Conditions: dose 2.5-100 µM, time 26.0 hrs.
Data set [8] deals with Rattus norvegicus. Description: Neuroprotective activity against middle cerebral artery occlusion induced ischemia stroke Sprague-Dawley rat model assessed as reduction in glycocalyx degradation by measuring decrease in serum syndecan-1 level at 20 mg/kg, ip measured after 24 hrs by ELISA. The class given is functional, organism-based.
The test system of data set [9] is Rattus norvegicus. As to the kind of experiment: Neuroprotective activity against middle cerebral artery occlusion induced ischemia stroke Sprague-Dawley rat model assessed as cerebral infarction area at 10 mg/kg, ip measured after 24 hrs by TTC staining based imaging analysis (reference value: 20.08 +/- 5.70). The class given is functional.

The source made the active and inactive calls. The calls are words filed in the database; no cut-off is given here.

Take `NS(=O)(=O)c1ccc(-n2nc(-c3ccc(F)cc3O)nc2-c2ccc(F)cc2O)cc1`: the result in [1], in [3] and in [4] was Active. The IC50 in [2] was 26.3 µM. In addition, the Activity entry was “Non-Toxic” in data set [5] and “Dose-Dependent Effect” in data set [6].
For `NS(=O)(=O)c1ccc(-n2nc(-c3ccccc3)nc2-c2ccccc2O)cc1`, the result in [1], in data set [3] and in data set [4] was Active. Besides, the IC50 in data set [2] came to 32.1 µM. Besides, the Activity result in data set [5] was “Non-Toxic”.
In the case of `NS(=O)(=O)c1ccc(-n2nc(-c3ccc(F)cc3O)nc2-c2ccccc2O)cc1`, in data set [1], the outcome was Active.
Regarding `NS(=O)(=O)c1ccc(-n2nc(-c3ccc([N+](=O)[O-])cc3O)nc2-c2ccccc2O)cc1`, the outcome in [1] was Active.
For `Cc1ccc(-c2cc(C(F)(F)F)nn2-c2ccc(S(N)(=O)=O)cc2)cc1` [CELECOXIB], the outcome in data set [7] was inactive. The outcome in data set [3] and in [4] was Active. The Activity result in [5] was “Non-Toxic”.
Take `COc1ccc(O)c(-c2nc(-c3ccccc3O)n(-c3ccc(S(N)(=O)=O)cc3)n2)c1`: the outcome in data set [1] was Active. For the same molecule, the IC50 in data set [2] was 12.8 µM.
As for `NS(=O)(=O)c1ccc(-n2nc(-c3ccc(F)cc3)nc2-c2ccccc2O)cc1`, the outcome in [1], in [3] and in data set [4] was Active. Also, the IC50 in data set [2] came out at 41.6 µM. For the same molecule, the Activity result in [5] is listed as “Non-Toxic”.
On to `NS(=O)(=O)c1ccc(-n2nc(-c3ccc(Cl)cc3O)nc2-c2ccc(Cl)cc2O)cc1`, for which the result in data set [1] was Active.
The same measure, in the same setting: for `COc1ccc(-c2nc(-c3ccc(OC)cc3O)n(-c3ccc(S(N)(=O)=O)cc3)n2)c(O)c1` the value was “Active”.
`NS(=O)(=O)c1ccc(-n2nc(-c3ccccc3O)nc2-c2ccccc2O)cc1`: the outcome in data set [1], in [3] and in data set [4] was Active. Also, in data set [2], the IC50 came to 39.2 µM. The results for the Activity entry in data set [5] and in data set [6] were “Non-Toxic” and “Dose-Dependent Effect”, respectively.
Take `Oc1cc(C(F)(F)F)ccc1-c1nc(-c2ccccc2O)n(-c2ccccc2)n1`: the outcome in [1] was Active.
Still for that read-out and setting: for `COc1ccc(-c2nc(-c3ccccc3O)n(-c3ccc(S(C)(=O)=O)cc3)n2)c(O)c1` the value was “Active”; for `COc1ccc(-c2nc(-c3ccccc3OC(C)=O)n(-c3ccccc3)n2)c(OC(C)=O)c1`, “Active”; for `COc1ccc(-c2nc(-c3ccccc3O)n(-c3ccc(S(N)(=O)=O)cc3)n2)cc1`, “Active”.
Turning to `Cc1ccc(-c2nc(-c3ccc(C)cc3O)n(-c3ccc(S(N)(=O)=O)cc3)n2)c(O)c1`, the outcome in data set [1] was Active.
With `Cc1ccc(-c2nc(-c3ccccc3O)n(-c3ccc(S(N)(=O)=O)cc3)n2)c(O)c1`, the outcome in data set [1], in data set [3] and in data set [4] was Active. The IC50 in data set [2] is 42.3 µM. Also, the Activity entry in [5] was “Non-Toxic”; in data set [6], “Dose-Dependent Effect”.
Turning to `CC1=NN(c2ccccc2)C(=O)C1` [EDARAVONE], the result in data set [8] was Active. In addition, in data set [9], the Activity is given as 15.41.
Consider `NS(=O)(=O)c1ccc(-n2nc(-c3ccc(C(F)(F)F)cc3O)nc2-c2ccc(C(F)(F)F)cc2O)cc1`, for which, in [1], the result was Active.
For `COc1cccc(-c2nc(-c3ccccc3O)n(-c3ccc(S(N)(=O)=O)cc3)n2)c1O`, the result in data set [1] was Active. Further, the IC50 in [2] worked out at 20 µM.
For `CC(=O)Oc1cc(C(F)(F)F)ccc1-c1nc(-c2ccccc2OC(C)=O)n(-c2ccccc2)n1`, in data set [1], the result was Active.
Consider `COc1ccc(-c2nc(-c3ccccc3O)n(-c3ccc(S(N)(=O)=O)cc3)n2)c(O)c1`, for which, in [1], the outcome was Active. In data set [2], the IC50 came out at 45.5 µM.
In the case of `CS(=O)(=O)c1ccc(-n2nc(-c3ccccc3O)nc2-c2ccccc2O)cc1`, the outcome in data set [1] was Active.
Same read-out and setting: for `CC(=O)Oc1ccccc1-c1nc(-c2ccccc2OC(C)=O)n(-c2ccccc2)n1` the value was “Active”; for `Oc1ccccc1-c1nc(-c2ccccc2O)n(-c2ccccc2)n1`, “Active”.
With `NS(=O)(=O)c1ccc(-n2nc(-c3ccc(Cl)cc3O)nc2-c2ccccc2O)cc1`, in [1], the outcome was Active. The IC50 in data set [2] stood at 25.6 µM.
For `NS(=O)(=O)c1ccc(-n2nc(-c3ccc([N+](=O)[O-])cc3)nc2-c2ccccc2O)cc1`, the result in data set [1] was Active.
Regarding `CS(=O)(=O)c1ccc(-n2nc(-c3ccc(C(F)(F)F)cc3O)nc2-c2ccccc2O)cc1`, the result in [1], in data set [3] and in data set [4] was Active. Moreover, the IC50 in data set [2] was 82.1 µM. Further, the figures for the Activity result in data set [5] and in data set [6] were “Non-Toxic” and “Dose-Dependent Effect”, respectively.
For the molecule `COc1ccc(-c2nc(-c3ccccc3O)n(-c3ccccc3)n2)c(O)c1`, in [1], the result was Active.
`NS(=O)(=O)c1ccc(-n2nc(-c3ccc(C(F)(F)F)cc3)nc2-c2ccccc2O)cc1`: the outcome in [1], in [3] and in [4] was Active. Besides, the IC50 in data set [2] stood at 43.4 µM. The Activity result in [5] was “Non-Toxic”.

The record behind these values is ChEMBL document CHEMBL5625239, “Synthesis of 1,3,5-triphenyl-1,2,4-triazole derivatives and their neuroprotection by anti-oxidative stress and anti-inflammation and protecting BBB” (Eur J Med Chem, 2023).
